The subject of data set [1] is apolipoprotein B mRNA. Nature of the data set: High fat fed C57BL/6 mice, 6 week timecourse: target mRNA levels in liver. Type of data set: in vivo, mouse. As to conditions: six weeks. The method, then: Male C57BL/6 mice (n=8) receiving a high fat diet (60% kcal fat) were evaluated over the course of 6 weeks for the effects of treatment with the antisense oligonucleotide, ISIS 147764. Control animals received saline treatment (50 mg/kg). A subset of animals received a daily oral dose (20 mg/kg) atorvastatin calcium (Lipitor®, Pfizer Inc.). All mice, except atorvastatin-treated animals, were dosed intraperitoneally every three days (twice a week), after fasting overnight, with 5, 25, 50 mg/kg ISIS 147764 (SEQ ID No: 109) or saline (50 mg/kg) for six weeks. Serum cholesterol and lipoproteins were analyzed at 0, 2 and 6 week interim timepoints. At study termination, animals were sacrificed 48 hours after the final injections and evaluated for levels of target mRNA levels in liver, cholesterol, lipoprotein, triglyceride, liver enzyme (AST and ALT) and serum glucose levels as well as body, liver, spleen and fat pad weights.
Male C57BL/6 mice (n=8) receiving a high fat diet (60% kcal fat) were evaluated over the course of 6 weeks for the effects of ISIS 147764 on mRNA expression. Control animals received saline treatment (50 mg/kg). Mice were dosed intraperitoneally every three days (twice a week), after fasting overnight, with 5, 25, 50 mg/kg ISIS 147764 (SEQ ID No: 109) or saline (50 mg/kg) for six weeks. At study termination, animals were sacrificed 48 hours after the final injections and evaluated for levels of target mRNA levels in liver.

Data set [2] is described as follows: High fat fed mice (Example 65): ALT and AST levels. Type of data set: in vivo, mouse. The settings on record: 10, 25 and 50 mg/kg. The method, then:
Male C57Bl/6 mice were divided into the following groups, consisting of 5 animals each: (1) mice on a lean diet, injected with saline (lean control); (2) mice on a high fat diet; (3) mice on a high fat diet injected with 50 mg/kg of the control oligonucleotide 141923 (SEQ ID NO: 858); (4) mice on a high fat diet given 20 mg/kg atorvastatin calcium (Lipitor®, Pfizer Inc.); (5) mice on a high fat diet injected with 10, 25 or 50 mg/kg ISIS 147764 (SEQ ID NO: 109). Saline and oligonucleotide treatments were administered intraperitoneally twice weekly for 6 weeks. Atorvastatin was administered daily for 6 weeks. At study termination, liver samples were isolated from each animal and RNA was isolated for Northern blot qualitative assessment, DNA microarray and quantitative real-time PCR. Northern blot assessment and quantitative real-time PCR were performed as described by other examples herein.
Mouse apolipoprotein B mRNA and serum cholesterol levels, measured as described herein, were evaluated to confirm antisense inhibition by ISIS 147764 and ISIS 147483. […] The 50 mg/kg dose of ISIS 147483 increased ALT and AST levels.

Data set [3] concerns apolipoprotein B mRNA. Nature of the data set: Lean mice, 6 weeks (Example 66): apolipoprotein B mRNA. It is filed as in vivo, mouse. The method, then: The accumulation of lipids in liver tissue was also evaluated in lean mice. Male […] mice (Charles River Laboratories (Wilmington, Mass.) at 6 to 7 weeks of age were maintained on a standard rodent diet and were treated twice weekly with intraperitoneal injections of 25 or 50 mg/kg 147764 (SEQ ID NO: 109) or 147483 (SEQ ID NO: 79) for 6 weeks. Saline treated animals served as controls. Each treatment group was comprised of 4 animals. Animals were sacrificed after the 6 week treatment period, at which point liver tissue and serum were collected.
Apolipoprotein B mRNA levels were measured by real-time PCR as described by other examples herein. The data, shown in Table 51, represent the average of 4 animals and are presented as inhibition relative to saline treated controls.

Data set [4] in a line: High fat fed C57BL/6 mice, 6 week timecourse: serum AST and ALT levels. Type of data set: in vivo, mouse. As to conditions: for ALT levels: 6 weeks (saline control 25 IU/L); for AST levels: 6 weeks (saline control 65 IU/L). As to the method:
Male C57BL/6 mice (n=8) receiving a high fat diet (60% kcal fat) were evaluated over the course of 6 weeks for the effects of ISIS 147764 on liver enzyme (AST and ALT) levels. Increased levels of the liver enzymes ALT and AST indicate toxicity and liver damage. Control animals received saline treatment (50 mg/kg). […] AST and ALT levels were measured at 6 weeks.

Data set [5] in a line: Transgenic mice dosing study (Example 52): serum ALT and AST levels. Type of data set: in vivo, mouse. As to conditions: 10 or 25 mg/kg.
Data set [6] relates to mouse apolipoprotein B mRNA. Put plainly: Long-term study in lean CD-1 mice (Example 63): apolipoprotein B mRNA in liver. Type of data set: in vivo. The settings on record: after one month of treatment. As to the method:
In accordance with the present invention, the toxicity of ISIS 301012 (SEQ ID NO: 247) is investigated in a long-term, 3 month study in mice. Two-month old male and female CD-1 mice (Charles River Laboratories, Wilmington, Mass.) are dosed with 2, 5, 12.5, 25 or 50 mg/kg of ISIS 301012 twice per week for first week, and every 4 days thereafter. The mice are maintained on a standard rodent diet. Saline and control oligonucleotide animals serve as controls and are injected on the same schedule. Each treatment group contains 6 to 10 mice of each sex, and each treatment group is duplicated, one group for a 1 month study termination, the other for a 3 month study termination. After the 1 or 3 month treatment periods, the mice are sacrificed and evaluated for target expression in liver, lipid levels in serum and indicators of toxicity. Liver samples are procured, RNA is isolated and apolipoprotein B mRNA expression is measured by real-time PCR as described in other examples herein. Serum lipids, including total cholesterol, LDL-cholesterol, HDL-cholesterol and triglycerides, are evaluated by routine clinical analysis using an Olympus Clinical Analyzer (Olympus America Inc., Melville, N.Y.). Ratios of LDL-cholesterol to HDL-cholesterol and total cholesterol to HDL-cholesterol are also calculated. […]

For the substance “GTCCCTGAAGATGTCAATGC (2'-MOE gapmer, further chemistry not given here) [ISIS 147764]”, the “reduction of target mRNA levels in liver” value in data set [1] (5 mg/kg i.p. every three days) is 15%; in data set [1] (25 mg/kg i.p. every three days) it was 75%; in data set [1] (50 mg/kg i.p. every three days), 88%. The “ALT or AST levels” value in data set [2] was “did not significantly elevate”. Besides, the “% Inhibition apolipoprotein B mRNA” value in data set [3] (25 mg/kg i.p. twice weekly) is 48%; in data set [3] (50 mg/kg i.p. twice weekly) it was 77%. The “inhibition of apolipoprotein B mRNA expression” value in data set [3] (25 or 50 mg/kg i.p. twice weekly) was “in a dose-dependent manner”. Besides, the ALT levels in data set [4] (5 mg/kg) is 50 IU/L; in data set [4] (25 mg/kg), 70 IU/L; in data set [4] (50 mg/kg), 100 IU/L. Also, the AST levels worked out at 105 IU/L in data set [4] (5 mg/kg), 70 IU/L in data set [4] (25 mg/kg) and 80 IU/L in data set [4] (50 mg/kg).
For the substance “ISIS 301012: SEQ ID NO: 247, antisense oligonucleotide targeted to human apolipoprotein B (antisense GCCTCAGTCTGCTTCGCACC; chemistry not given here)”, the “AST and ALT levels in serum” value in data set [5] is “increased, yet did not exceed normal levels”. Moreover, the “reduction of mouse apolipoprotein B mRNA levels in liver” value in data set [6] amounted to 53%.

The values are drawn from US7803930B2, “Antisense modulation of apolipoprotein B-expression” (Isis Pharmaceuticals, Inc., priority 2002, dated 2010).
